# Target: 15-PGDH/HPGD (Homo sapiens (Human), UniProt P15428)
# Test: hPGDH inhibitor screening biochemical assay
# Conditions: 10 nM 15-PGDH/HPGD, 15 μM PGE2, 0.25 mM NAD; read-out: hPGDH: Average IC50
# Protocol: A hydroxyprostaglandin dehydrogenase inhibition screening biochemical assay can be performed to assess the synthesized inhibitors provided herein. Provided herein is an exemplary biochemical assay for hPGDH inhibitor screening.
# The in vitro biochemical assay can be performed in white, 384 plates in total 20 μl reaction volume consisting of 10 nM of 15-PGDH/HPGD (R&D System #5660-DH), 15 μM Prostaglandin E2 (Sigma, Cat #P5640-10MG) and 0.25 mM β-Nicotinamide adenine dinucleotide sodium salt (Sigma, Cat #N0632-5G) made in reaction buffer (50 mM Tris-HCl, pH 7.5, 0.01% Tween 20) at 10-point dose response curve for test/tool compounds. Briefly, 5 μl (4×) of compounds solution and 5 μl (final concentration, 10 nM) of enzyme solution is added to white 384 well plates and incubated for 10 mins at 37° C. 5 μl (4×) of Prostaglandin E2 and 5 μl (4×) of β-Nicotinamide adenine dinucleotide sodium salt is added to the wells and incubated for 10 mins at rt. Fluorescence is recorded at ex/em=340 nm/485 nm. The percentage (%) inhibition of enzyme activity was determined relative to […] (1% DMSO) and IC50 was calculated using GraphPad prism software (four parameter-variable slope equation).
# Sequence of 15-PGDH/HPGD (P15428 whole entry): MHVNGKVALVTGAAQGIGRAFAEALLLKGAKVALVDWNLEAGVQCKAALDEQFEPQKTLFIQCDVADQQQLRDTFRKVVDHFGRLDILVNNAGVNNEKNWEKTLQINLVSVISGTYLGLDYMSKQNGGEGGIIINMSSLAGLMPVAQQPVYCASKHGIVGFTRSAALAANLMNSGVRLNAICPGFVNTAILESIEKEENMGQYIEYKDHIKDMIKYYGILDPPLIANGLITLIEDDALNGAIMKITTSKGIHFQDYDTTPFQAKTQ
row,SMILES,IC50 [nM]
1,"Cc1c(C(=O)N2CCC(F)CC2)cnc2c1ccn2-c1cnccn1 [A-97, (4-fluoropiperidin-1-yl)(4-methyl-1-(pyrazin-2-yl)-1H-pyrrolo[2,3-b]pyridin-5-yl)methanone]",< 100
2,"CS(=O)(=O)n1ccc2cc(C(=O)N3CCCCC3)cnc21 [A-110, (1-(methylsulfonyl)-1H-pyrrolo[2,3-b]pyridin-5-yl)(piperidin-1-yl)methanone]",≥ 1000
3,"Cc1ccc(S(=O)(=O)n2ccc3cc(C(=O)N4CCCCC4)cnc32)cc1 [A-111, piperidin-1-yl(1-tosyl-1H-pyrrolo[2,3-b]pyridin-5-yl)methanone]",≥ 1000
4,O=C(c1cnc2c(ccn2-c2ccn3ccnc3c2)c1)N1CCCCC1 [A-112],< 100
5,Cc1cncc(-n2ccc3cc(C(=O)N4CCCCC4)cnc32)c1 [A-113],< 100
6,N#Cc1ccc(-n2ccc3cc(C(=O)N4CCC(F)CC4)cnc32)cc1 [A-114],< 100
7,N#Cc1cccc(-n2ccc3cc(C(=O)N4CCC(F)CC4)cnc32)c1 [A-115],< 100
8,CN(C)c1ccc(-n2ccc3cc(C(=O)N4CCCCC4)cnc32)cn1 [A-116],< 100
9,N#Cc1ccc(-n2ccc3cc(C(=O)N4CCCCC4)cnc32)cn1 [A-117],< 100
10,N#Cc1ncc(-n2ccc3cc(C(=O)N4CCCCC4)cnc32)cn1 [A-118],< 100
11,"O=C(c1cnc2c(ccn2-c2ccc3[nH]ncc3c2)c1)N1CCCCC1 [A-119, (1-(1H-indazol-5-yl)-1H-pyrrolo[2,3-b]pyridin-5-yl)(piperidin-1-yl)methanone]",< 100
12,COc1ccc(Cn2ncc3cc(-n4ccc5cc(C(=O)N6CCCCC6)cnc54)ccc32)cc1 [A-120],< 100
13,COc1ccc(Cn2cc3cc(-n4ccc5cc(C(=O)N6CCCCC6)cnc54)ccc3n2)cc1 [A-121],< 100
14,NC(=O)c1ccc(-n2ccc3cc(C(=O)N4CCC(F)CC4)cnc32)cc1 [A-122],< 100
15,NC(=O)c1cccc(-n2ccc3cc(C(=O)N4CCC(F)CC4)cnc32)c1 [A-123],< 100
16,NC(=O)c1ccc(-n2ccc3cc(C(=O)N4CCCCC4)cnc32)cn1 [A-124],< 100
17,NC(=O)c1ncc(-n2ccc3cc(C(=O)N4CCCCC4)cnc32)cn1 [A-125],< 100
18,NC(=O)c1ccc(-n2ccc3cc(C(=O)N4CCC(F)(F)CC4)cnc32)cc1 [A-126],< 100
19,O=C(c1cnc2c(ccn2-c2ccc(CO)cc2)c1)N1CCC(F)CC1 [A-127],< 100
20,O=C(c1cnc2c(ccn2-c2cccc(CO)c2)c1)N1CCC(F)CC1 [A-128],< 100
21,CC(C)(O)c1ccc(-n2ccc3cc(C(=O)N4CCCCC4)cnc32)cc1 [A-130],< 100
22,COc1ccc(-n2ccc3cc(C(=O)N4CCC(c5ccccc5)CC4)cnc32)cc1 [A-134],≥ 1000
23,COc1ccc(-n2ccc3cc(C(=O)N4CC(c5ccccc5)C4)cnc32)cc1 [A-135],≥ 1000
24,COc1ccc(-n2ccc3cc(C(=O)N4CCN(CC(F)(F)F)CC4)cnc32)cc1 [A-136],≥ 1000
25,"COc1ccc(-n2ccc3cc(C(=O)N4C[C@H](C)C[C@H](C)C4)cnc32)cc1 [A-138, ((3R,5S)-3,5-dimethylpiperidin-1-yl)(1-(4-methoxyphenyl)-1H-pyrrolo[2,3-b]pyridin-5-yl)methanone]",< 100
26,COCCNC(=O)c1ccc(-n2ccc3cc(C(=O)N4CCCCC4)cnc32)cc1 [A-139],< 100

row,SMILES,IC50 [nM]
1,CNC(=O)c1ccc(-n2ccc3cc(C(=O)N4CCCCC4)cnc32)cc1 [A-140],< 100
2,CN(C)C(=O)c1ccc(-n2ccc3cc(C(=O)N4CCCCC4)cnc32)cc1 [A-141],< 100
3,COc1ccc(-n2ccc3cc(C(=O)N4CCC(F)CC4)cnc32)cc1 [A-142],< 100
4,COc1cccc(-n2ccc3cc(C(=O)N4CCCCC4)cnc32)c1 [A-143],< 100
5,O=C(c1cnc2c(ccn2-c2cncc(Cl)c2)c1)N1CCCCC1 [A-144],< 100
6,COc1cncc(-n2ccc3cc(C(=O)N4CCCCC4)cnc32)c1 [A-145],< 100
7,COc1ccc(-n2ccc3cc(C(=O)N4CCCCC4)cnc32)cc1 [A-146],< 100
8,N#Cc1ccc(-n2ccc3cc(C(=O)N4CCCCC4)cnc32)cc1 [A-147],< 100
9,N#Cc1cccc(-n2ccc3cc(C(=O)N4CCCCC4)cnc32)c1 [A-148],< 100
10,CN(C)c1cccc(-n2ccc3cc(C(=O)N4CCCCC4)cnc32)c1 [A-149],< 100
11,CN(C)c1ccc(-n2ccc3cc(C(=O)N4CCCCC4)cnc32)cc1 [A-150],< 100
12,CCOc1ccc(-n2ccc3cc(C(=O)N4CCCCC4)cnc32)cc1 [A-151],< 100
13,CS(=O)(=O)c1cccc(-n2ccc3cc(C(=O)N4CCCCC4)cnc32)c1 [A-152],< 100
14,CS(=O)(=O)c1ccc(-n2ccc3cc(C(=O)N4CCCCC4)cnc32)cc1 [A-153],< 100
15,Nc1cc(-n2ccc3cc(C(=O)N4CCCCC4)cnc32)ccn1 [A-154],< 100
16,O=C(c1cnc2c(ccn2-c2ccc(O)nc2)c1)N1CCCCC1 [A-155],< 100
17,Nc1cncc(-n2ccc3cc(C(=O)N4CCCCC4)cnc32)c1 [A-156],< 100
18,COc1ccc(-n2ccc3cc(C(=O)N4CCCCC4)cnc32)cn1 [A-157],< 100
19,Nc1ccc(-n2ccc3cc(C(=O)N4CCCCC4)cnc32)cn1 [A-158],< 100
20,NC(=O)c1ccc(-n2ccc3cc(C(=O)N4CCCCC4)cnc32)cc1 [A-159],< 100
21,NC(=O)c1cccc(-n2ccc3cc(C(=O)N4CCCCC4)cnc32)c1 [A-160],< 100
22,NCc1ccc(-n2ccc3cc(C(=O)N4CCCCC4)cnc32)cc1 [A-162],< 100
23,O=C(c1cnc2c(ccn2-c2ccc(CO)cc2)c1)N1CCCCC1 [A-163],< 100
24,O=C(c1cnc2c(ccn2-c2cccc(CO)c2)c1)N1CCCCC1 [A-164],< 100
25,"COc1ccc(-n2cc(Cl)c3cc(C(=O)N4CCC(F)CC4)cnc32)cc1 [A-165, (3-chloro-1-(4-methoxyphenyl)-1H-pyrrolo[2,3-b]pyridin-5-yl)(4-fluoropiperidin-1-yl)methanone]",< 100
26,COc1ccc(-n2cc(Cl)c3cc(C(=O)N4CCCCC4)cnc32)cc1 [A-166],< 100

row,SMILES,IC50 [nM]
1,O=C(c1cnc2c(c1)c(Cl)cn2-c1ccc2c(c1)OC(F)(F)O2)N1CCC(F)CC1 [A-167],< 100
2,O=C(c1cnc2c(c1)c(Cl)cn2-c1ccc2c(c1)OC(F)(F)O2)N1CCCCC1 [A-168],< 100
3,COc1cccc(-n2cc(Cl)c3cc(C(=O)N4CCCCC4)cnc32)c1 [A-169],< 100
4,O=C(c1cnc2c(c1)c(Cl)cn2-c1cncc(Cl)c1)N1CCCCC1 [A-170],< 100
5,COc1cncc(-n2cc(Cl)c3cc(C(=O)N4CCCCC4)cnc32)c1 [A-171],< 100
6,O=C(c1cnc2c(ccn2-c2cnccn2)c1Cl)N1CCC(F)CC1 [A-172],< 100
7,O=C(c1cnc2c(c(Cl)cn2-c2cnccn2)c1Cl)N1CCC(F)CC1 [A-173],< 100
8,Cc1nc2c(ccn2-c2cnccn2)cc1C(=O)N1CCC(F)CC1 [A-174],≥ 1000
9,Cc1nc2c(cc1C(=O)N1CCC(F)CC1)c(Cl)cn2-c1cnccn1 [A-175],≥ 1000
10,CCC(CC)n1cnc2cc(C(=O)N3CCC(F)CC3)cnc21 [A-176],≥ 1000
11,O=C(c1cnc2c(c1)ncn2-c1ccc(F)cc1)N1CCCCC1 [A-178],< 100
12,O=C(c1cnc2c(c1)ncn2-c1ccc(F)c(F)c1)N1CCCCC1 [A-180],< 100
13,O=C(c1cnc2c(c1)ncn2-c1ccc(OC(F)(F)F)cc1)N1CCCCC1 [A-182],< 100
14,CCOc1ccc(-n2cnc3cc(C(=O)N4CCCCC4)cnc32)cc1 [A-186],< 100
15,N#Cc1ccc(-n2cnc3cc(C(=O)N4CCC(F)(F)CC4)cnc32)cc1 [A-193],< 100
16,N#Cc1ccc(-n2cnc3cc(C(=O)N4CC(Cl)C4)cnc32)cc1 [A-194],< 100
17,NC(=O)c1ccc(-n2cnc3cc(C(=O)N4CCC(F)(F)CC4)cnc32)cc1 [A-195],< 100
18,COc1ccc(-n2c(C)nc3cc(C(=O)N4CCCCC4)cnc32)cc1 [A-197],< 100
19,COc1ccc(-n2c(CCNC(C)=O)nc3cc(C(=O)N4CCC(F)CC4)cnc32)cc1 [A-198],≥ 1000
20,"Cc1c(C(=O)N2CCC(F)CC2)cnc2c1ccn2-c1ccc(C(N)=O)cc1 [A-202, 4-(5-(4-fluoropiperidine-1-carbonyl)-4-methyl-1H-pyrrolo[2,3-b]pyridin-1-yl)benzamide]",< 100
21,"NC(=O)c1ccc(-n2cc(Cl)c3cc(C(=O)N4CCC(F)CC4)cnc32)cc1 [A-203, 4-(3-chloro-5-(4-fluoropiperidine-1-carbonyl)-1H-pyrrolo[2,3-b]pyridin-1-yl)benzamide]",< 100
22,"NC(=O)c1ccc(-n2cc(Cl)c3cc(C(=O)N4CCCCC4)cnc32)cc1 [A-204, 4-(3-chloro-5-(piperidine-1-carbonyl)-1H-pyrrolo[2,3-b]pyridin-1-yl)benzamide]",< 100
23,"Cc1c(C(=O)N2CCC(F)CC2)cnc2c1ccn2-c1ccc(C#N)cc1 [A-206, 4-(5-(4-fluoropiperidine-1-carbonyl)-4-methyl-1H-pyrrolo[2,3-b]pyridin-1-yl)benzonitrile]",< 100
24,N#Cc1ccc(-n2cc(Cl)c3cc(C(=O)N4CCC(F)CC4)cnc32)cc1 [A-207],< 100
